The numbers were not newly measured in article PMC7406630, “A new ^68Ga-labeled somatostatin analog containing two iodo-amino acids for dual somatostatin receptor subtype 2 and 5 targeting” (EJNMMI Research, 2020), which cites them from elsewhere.

What all share (parameters): method as in PMID 29523357
Data set [1] has as its target T1, human SST2 (Homo sapiens, UniProt P30874).
T1 construct: expressed in transfected cells; host or cells: HEK293 (HEK-SST2)
To be noted: read-out: SST2 IC50, nM (95% CI); HEK-SST2 cells, ^125I-SS-14 radioligand; published earlier but measured head-to-head; cited from earlier work.

Data set [2] has as its target T2, human SST5 (Homo sapiens, UniProt P35346).
T2 construct: expressed in transfected cells; host or cells: HEK293 (HEK-SST5)
To be noted: read-out: SST5 IC50, nM (95% CI); HEK-SST5 cells, ^125I-SS-14 radioligand; published earlier but measured head-to-head; cited from earlier work.

The target in data set [3] is T1, human SST2. As to conditions: read-out: SST2 EC50, nM (95% CI); cAMP, HEK-SST2 cells; cited from earlier work.
Data set [4] addresses T2, human SST5. As to conditions: read-out: SST5 EC50, nM (95% CI); cAMP, HEK-SST5 cells; cited from earlier work.

T2 sequence (P35346 whole entry): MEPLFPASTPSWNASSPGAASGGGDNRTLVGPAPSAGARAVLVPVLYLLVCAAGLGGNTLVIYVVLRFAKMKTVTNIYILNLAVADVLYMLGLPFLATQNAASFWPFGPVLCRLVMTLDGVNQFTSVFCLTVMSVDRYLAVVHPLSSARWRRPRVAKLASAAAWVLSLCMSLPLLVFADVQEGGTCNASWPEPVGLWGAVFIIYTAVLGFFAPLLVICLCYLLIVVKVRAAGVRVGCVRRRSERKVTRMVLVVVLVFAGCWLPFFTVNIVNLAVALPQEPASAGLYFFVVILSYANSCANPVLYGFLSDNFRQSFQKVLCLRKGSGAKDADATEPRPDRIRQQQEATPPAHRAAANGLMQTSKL
T1 sequence (P30874 whole entry): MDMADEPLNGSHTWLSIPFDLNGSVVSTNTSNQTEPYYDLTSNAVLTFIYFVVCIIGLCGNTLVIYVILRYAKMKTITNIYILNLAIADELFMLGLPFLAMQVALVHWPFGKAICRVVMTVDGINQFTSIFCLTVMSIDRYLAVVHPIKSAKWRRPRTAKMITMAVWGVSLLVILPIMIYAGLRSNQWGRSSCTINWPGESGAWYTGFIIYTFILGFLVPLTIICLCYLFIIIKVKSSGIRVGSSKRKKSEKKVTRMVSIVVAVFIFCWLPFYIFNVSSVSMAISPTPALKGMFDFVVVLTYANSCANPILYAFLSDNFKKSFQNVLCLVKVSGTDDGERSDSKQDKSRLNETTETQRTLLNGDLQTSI

By IC50 is commonly meant the midpoint of a concentration-inhibition curve. The term EC50 denotes the concentration giving half of the maximal effect. Turning to Pasireotide, the IC50 on human SST2 [1] is 3.1 nM; on human SST5 [2], 0.2 nM. In addition, the EC50 on human SST2 [3] was 1.1 nM; at human SST5 [4], 0.6 nM.
